For assay [1], the target named is T1, HIF-2α HIS TAG-PASB Domain (Homo sapiens, UniProt Q99814).
T1 construct: 100 nM HIF-2α HIS TAG-PASB Domain
Kind of assay: HIF-2α Scintillation Proximity Assay (SPA). The assay is classed as binding. The settings on record: 100 nM HIF-2α HIS TAG-PASB Domain. In a few lines:
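IC50 values rest on percent inhibition, where the sample signal is scaled between high and low controls. Wells contain about 100 μL: compound dispensed as 2 μL of DMSO solution, 88 μL protein-probe mix and 10 μL of beads.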

For another assay, the system named is 786-0 cells. Kind of assay: VEGF ELISA Assay. The assay is classed as cell-based. The procedure:
Each concentration had duplicated wells. About 20 hours later, medium was removed by suction and each well was supplied with 180 μL of growth medium. About 20 μl freshly-made 10× compound stocks were added to each well. […] The EC50 was calculated by GraphPad Prism using the dose-response-inhibition (four parameter) equation. The cell seeded plate was then subjected to CellTiter-Glo luminescence cell viability assay (Promega) by adding 50 μL of Celltiter Glo reagent into each well and shaking the plate for 8 minutes at 550 rpm (Thermomixer R, Eppendorf) then read luminescence signal in plate reader (3 second delay, 0.5 second/well integration time, Synergy 2 multi Detection Microplate reader) immediately.
For orientation: ELISA stands for enzyme-linked immunosorbent assay.

The subject of a further assay is 786-O-Hif-Luc cells. Kind of assay: Luciferase Assay. The settings on record: read-out: Luciferase EC50. It counts as cell-based. The procedure: A pool of infected cells were then selected against 2 μg/mL of puromycin (P8833, Sigma) for 10 days followed by limited dilution to select single clones.
Each concentration was tested in triplicate. After about 24 hours, luciferase activity was determined using ONE-Glo Luciferase Assay Reagent (E6110, Promega) following the manufacturer's recommended procedure. EC50 were calculated by using Dotmatics software.

[2] abbreviates: 150 nM Compound 211 probe, read-out: SPA IC50.
Setting [3] is: Homo sapiens, 786-0, 786-0 cells, VEGFA concentration in cell culture medium, read-out: VEGF ELISA EC50.
The mark [4] stands for this setting: 24 h, 786-O-Hif-Luc cells, about 24 hours.
Setting [5] is: 786-0 cells, VEGFA concentration in cell culture medium, read-out: VEGF ELISA EC50.
Where [6] appears, read: 786-O-Hif-Luc cells, about 24 hours.
Setting [7] is: Homo sapiens, 786-0, read-out: VEGF ELISA EC50.
Setting [8] is: SPA IC50, 150 nM Compound 211 probe.

SMILES strings stand for the structures. Where two headings read alike, the source gives them in different places.

T1 sequence (Q99814 240-350 limits assumed): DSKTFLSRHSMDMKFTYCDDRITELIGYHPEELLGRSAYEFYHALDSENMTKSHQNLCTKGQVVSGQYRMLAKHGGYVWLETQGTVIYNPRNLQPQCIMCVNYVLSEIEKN

In general, IC50 refers to the midpoint of a concentration-inhibition curve. The term EC50 denotes the concentration needed to bring the measured effect to its halfway point. Turning to `CS(=O)(=NC#N)c1ccc(Oc2cc(F)cc(C#N)c2)c2c1[C@H](O)C(F)(F)C2` (single isomer, unassigned) [Compound 20], the IC50 in assay [1] (setting [2]) was determined as 27 nM. Further, the EC50 stood at 67 nM with 786-0 cells (setting [3]) and 28 nM with 786-O-Hif-Luc cells (setting [4]).

Consider `N#Cc1cc(F)cc(Oc2ccc(S(=N)(=O)CF)c3c2CC(F)(F)[C@H]3O)c1` (single isomer, unassigned) [Compound 38], for which the IC50 in assay [1] (setting [2]) is 94 nM. The EC50 in the assay on 786-0 cells (setting [3]) was 1440 nM; in the assay on 786-O-Hif-Luc cells (setting [4]) it was 195 nM.

Turning to `N#Cc1cc(F)cc(Oc2ccc(S(=N)(=O)C(F)(F)F)c3c2CC(F)(F)[C@H]3O)c1` (single isomer, unassigned) [Compound 69], the IC50 in assay [1] (setting [2]) was below 5 nM. Also, in the assay on 786-0 cells (setting [3]), the EC50 turned out to be 20 nM.

Consider `N#Cc1cc(F)cc(Oc2ccc(S(=N)(=O)C(F)(F)F)c3c2CC(F)(F)[C@H]3O)c1` (single isomer, unassigned) [Compound 70], for which, in assay [1] (setting [2]), the IC50 is below 5 nM. Besides, the EC50 with 786-0 cells (setting [5]) turned out to be 19 nM.

Regarding `CS(=O)(=NC#N)c1ccc(Oc2cc(F)cc(C#N)c2)c2c1[C@H](O)C(F)(F)[C@@H]2F` (single isomer, unassigned) [Compound 80], in assay [1] (setting [2]), the IC50 is below 5 nM. Also, the results for the EC50 with 786-0 cells (setting [3]) and with 786-O-Hif-Luc cells (setting [4]) were 17 nM and 12 nM, respectively.

In the case of `CS(=O)(=NC#N)c1ccc(Oc2cc(F)cc(C#N)c2)c2c1[C@H](O)C(F)(F)[C@@H]2F` (single isomer, unassigned) [Compound 81], the IC50 in assay [1] (setting [2]) is below 5 nM. Also, in the assay with 786-0 cells (setting [5]), the half-maximal effective concentration (EC50) was 14 nM.

Regarding `CS(=O)(=NC#N)c1ccc(Oc2cncc(C#N)c2)c2c1[C@H](O)C(F)(F)[C@@H]2F` (single isomer, unassigned) [Compound 83], the IC50 in assay [1] (setting [2]) stood at 14 nM. In addition, the values for the EC50 in the assay with 786-0 cells (setting [3]) and with 786-O-Hif-Luc cells (setting [4]) were 95 nM and 83 nM, respectively.

For the molecule `CS(=O)(=NC#N)c1ccc(Oc2cncc(C#N)c2)c2c1[C@H](O)C(F)(F)[C@@H]2F` (single isomer, unassigned) [Compound 85], in assay [1] (setting [2]), the IC50 was determined as 32 nM. Moreover, the EC50 in the assay on 786-0 cells (setting [5]) was 190 nM; in the assay with 786-O-Hif-Luc cells (setting [6]), 114 nM.

For the molecule `N=S1(=O)c2ccc(Oc3cc(F)cc(F)c3)c(C(F)F)c2C(O)C1(F)F` (single isomer, unassigned) [Compound 162, 4-(Difluoromethyl)-5-(3,5-difluorophenoxy)-2,2-difluoro-3-hydroxy-1-imino-2,3-dihydro-1H-1λ^4-benzo[b]thiophene 1-oxide], the half-maximal inhibitory concentration (IC50) in assay [1] (setting [2]) amounted to 29 nM. In addition, the values for the EC50 in the assay on 786-0 cells (setting [3]) and in the assay on 786-O-Hif-Luc cells (setting [4]) were 90 nM and 69 nM, respectively.

Take `O=S(=O)(c1ccc(Oc2cc(F)cc(Cl)c2)c2c1[C@H](O)CC2)C(F)F` [Compound 2, (R)-4-(3-chloro-5-fluorophenoxy)-7-((difluoromethyl)sulfonyl)-2,3-dihydro-1H-inden-1-ol]: the EC50 in the assay on 786-0 cells (setting [7]) was found to be 245 nM.

`N#Cc1cc(F)cc(Oc2ccc(S(=O)(=O)CF)c3c2CC(F)(F)[C@H]3O)c1` [Compound 3, (S)-3-((2,2-difluoro-7-((fluoromethyl)sulfonyl)-1-hydroxy-2,3-dihydro-1H-inden-4-yl)oxy)-5-fluorobenzonitrile] showed an IC50 in assay [1] (setting [8]) below 5 nM. For the same molecule, the EC50 with 786-0 cells (setting [3]) turned out to be 20 nM; with 786-O-Hif-Luc cells (setting [4]), 7 nM.

Consider `N#Cc1ccc(Oc2cc(F)cc(F)c2)c2c1[C@H](O)C(F)(F)C2` [Compound 4, (S)-7-(3,5-Difluorophenoxy)-2,2-difluoro-3-hydroxy-2,3-dihydro-1H-indene-4-carbonitrile], for which, in the assay on 786-0 cells (setting [7]), the EC50 worked out at 217 nM.

Take `Cc1cc(C#N)cc(Oc2ccc(S(=O)(=O)CF)c3c2CC(F)(F)[C@H]3O)c1` [Compound 7, (S)-3-((2,2-Difluoro-7-((fluoromethyl)sulfonyl)-1-hydroxy-2,3-dihydro-1H-inden-4-yl)oxy)-5-methylbenzonitrile]: the IC50 in assay [1] (setting [2]) is below 5 nM. In addition, the EC50 was found to be 70 nM with 786-0 cells (setting [3]) and 34 nM in the assay with 786-O-Hif-Luc cells (setting [4]).

`N#Cc1cc(F)cc(Oc2ccc(S(=O)(=O)C(F)(F)F)c3c2CC(F)(F)[C@H]3O)c1` [Compound 8, (S)-3-((2,2-Difluoro-1-hydroxy-7-((trifluoromethyl)sulfonyl)-2,3-dihydro-1H-inden-4-yl)oxy)-5-fluorobenzonitrile] came in with an IC50 in assay [1] (setting [8]) below 5 nM. The values for the EC50 in the assay with 786-0 cells (setting [3]) and in the assay with 786-O-Hif-Luc cells (setting [4]) were 4 nM and 3 nM, respectively.

On to `O=S(=O)(c1ccc(Oc2cncc(Cl)c2)c2c1[C@H](O)C(F)(F)C2)C(F)(F)F` [Compound 9, (S)-4-((5-Chloropyridin-3-yl)oxy)-2,2-difluoro-7-((trifluoromethyl)sulfonyl)-2,3-dihydro-1H-inden-1-ol], for which the IC50 in assay [1] (setting [2]) is below 5 nM. Also, the figures for the EC50 with 786-0 cells (setting [3]) and in the assay on 786-O-Hif-Luc cells (setting [4]) were 13 nM and 11 nM, respectively.

For the molecule `O=S(=O)(c1ccc(Oc2ccc(F)c3[nH]ncc23)c2c1[C@H](O)C(F)(F)C2)C(F)(F)F` [Compound 30, (S)-2,2-difluoro-4-((7-fluoro-1H-indazol-4-yl)oxy)-7-((trifluoromethyl)sulfonyl)-2,3-dihydro-1H-inden-1-ol], the EC50 with 786-0 cells (setting [3]) worked out at 54 nM; with 786-O-Hif-Luc cells (setting [4]) it was 30 nM.

In the case of `N#Cc1cc(F)cc(Oc2ccc(S(N)(=O)=O)c3c2[C@@H](F)C(F)(F)[C@H]3O)c1` [Compound 102, (1R,3S)-7-(3-cyano-5-fluoro-phenoxy)-1,2,2-trifluoro-3-hydroxy-indane-4-sulfonamide], the EC50 in the assay on 786-0 cells (setting [7]) came to 11 nM; with 786-O-Hif-Luc cells (24 h), 6 nM.

For the molecule `O=S1(=O)c2ccc(Oc3cc(F)cc(Cl)c3)c(Br)c2C(O)C1(F)F` (centres unmarked) [Compound 119, 4-Bromo-5-(3-chloro-5-fluorophenoxy)-2,2-difluoro-3-hydroxy-2,3-dihydrobenzo[b]thiophene 1,1-dioxide], the EC50 with 786-0 cells (Homo sapiens, 786-0 cells, VEGFA concentration in cell culture medium, read-out: VEGF ELISA EC50) came out at 64 nM; in the assay with 786-O-Hif-Luc cells (setting [6]) it was 46 nM.

For the molecule `N#Cc1cccc(Oc2ccc3c(c2C(F)F)[C@@H](O)C(F)(F)S3(=O)=O)c1` [Compound 199, (R)-3-((4-(difluoromethyl)-2,2-difluoro-3-hydroxy-1,1-dioxido-2,3-dihydrobenzo[b]thiophen-5-yl)oxy)benzonitrile], the half-maximal inhibitory concentration (IC50) in assay [1] (setting [2]) is 34 nM. In addition, the EC50 in the assay with 786-O-Hif-Luc cells (setting [4]) turned out to be 33 nM.

Regarding `O=S1(=O)c2ccc(Oc3ccc(F)c(F)c3)c(C(F)F)c2[C@@H](O)C1(F)F` [Compound 200, (R)-4-(Difluoromethyl)-5-(3,4-difluorophenoxy)-2,2-difluoro-3-hydroxy-2,3-dihydrobenzo[b]thiophene 1,1-dioxide], in assay [1] (setting [2]), the IC50 stood at 24 nM. For the same molecule, in the assay with 786-O-Hif-Luc cells (setting [4]), the EC50 is 79 nM.

`N#Cc1cc(Oc2ccc3c(c2C(F)F)[C@@H](O)C(F)(F)S3(=O)=O)ccc1F` [Compound 201, (R)-5-((4-(Difluoromethyl)-2,2-difluoro-3-hydroxy-1,1-dioxido-2,3-dihydrobenzo[b]thiophen-5-yl)oxy)-2-fluorobenzonitrile]: in assay [1] (setting [2]), the IC50 amounted to 72 nM. Also, the EC50 in the assay with 786-O-Hif-Luc cells (setting [4]) was 308 nM.

As to `O=S1(=O)c2ccc(OCC3CC3)c(C(F)F)c2[C@@H](O)C1(F)F` [Compound 203, (R)-5-(Cyclopropylmethoxy)-4-(difluoromethyl)-2,2-difluoro-3-hydroxy-2,3-dihydrobenzo[b]thiophene 1,1-dioxide], in assay [1] (setting [2]), the 50% inhibitory concentration (IC50) came to 1890 nM. In the assay on 786-O-Hif-Luc cells (setting [4]), the EC50 stood at 1160 nM.

On to `O=S1(=O)c2ccc(Oc3cccc4sccc34)c(C(F)F)c2C(O)C1(F)F` (centres unmarked) [Compound 204, 5-(Benzo[b]thiophen-4-yloxy)-4-(difluoromethyl)-2,2-difluoro-3-hydroxy-2,3-dihydrobenzo[b]thiophene 1,1-dioxide], for which the IC50 in assay [1] (setting [2]) is 11 nM. In addition, the EC50 with 786-O-Hif-Luc cells (setting [4]) was 455 nM.

As to `O=S1(=O)c2ccc(Oc3cccc4cn[nH]c34)c(C(F)F)c2C(O)C1(F)F` (centres unmarked) [Compound 205, 5-((1H-Indazol-7-yl)oxy)-4-(difluoromethyl)-2,2-difluoro-3-hydroxy-2,3-dihydrobenzo[b]thiophene 1,1-dioxide], in assay [1] (setting [2]), the IC50 is 1760 nM. Also, the EC50 in the assay with 786-O-Hif-Luc cells (setting [4]) worked out at 6900 nM.

As for `CC1(O)c2c(ccc(Oc3cc(F)cc(C#N)c3)c2C(F)F)S(=O)(=O)C1(F)F` (centres unmarked) [Compound 206, 3-((4-(Difluoromethyl)-2,2-difluoro-3-hydroxy-3-methyl-1,1-dioxido-2,3-dihydrobenzo[b]thiophen-5-yl)oxy)-5-fluorobenzonitrile], in assay [1] (setting [2]), the IC50 was found to be 200 nM. For the same molecule, in the assay on 786-O-Hif-Luc cells (setting [4]), the EC50 is 771 nM.

Regarding `N#Cc1c(Oc2cc(F)cc(F)c2)ccc2c1C(O)C(F)(F)S2(=O)=O` (centres unmarked) [Compound 207, 5-(3,5-Difluorophenoxy)-2,2-difluoro-3-hydroxy-2,3-dihydrobenzo[b]thiophene-4-carbonitrile 1,1-dioxide], the IC50 in assay [1] (setting [2]) came to 46 nM. The EC50 in the assay with 786-O-Hif-Luc cells (setting [4]) was found to be 427 nM.

In the case of `CC1(O)c2c(ccc(Oc3cc(F)cc(F)c3)c2Br)S(=O)(=O)C1(F)F` (centres unmarked) [Compound 208, 4-Bromo-5-(3,5-difluorophenoxy)-2,2-difluoro-3-hydroxy-3-methyl-2,3-dihydrobenzo[b]thiophene 1,1-dioxide], in assay [1] (setting [2]), the half-inhibitory concentration (IC50) is 83 nM. The EC50 in the assay with 786-O-Hif-Luc cells (setting [4]) worked out at 296 nM.
